Assay results reported in patent publication US9617530B2, “Acetyl-CoA carboxylase herbicide resistant sorghum” (Kansas State University Research Foundation, Inc., priority 2007, dated 2017).

Tests used:
[1] = system: Pioneer 84G62 (herbicide susceptible control); assay: Mode of inheritance greenhouse spray test, susceptible control; type: in vivo, sorghum; conditions: 0.045 lb ai fluazifop-P acre^-1 at 14 days after planting, n=3
Experimental: (§1) The mode of inheritance of herbicide tolerance was determined by planting seeds of Bol-71, F1 generation of cross ATx623×Bol-71, and Pioneer 84G62 (herbicide susceptible control) in flats containing MetroMix 360 potting soil in a greenhouse using a randomized complete block design (n=3). The plants were sprayed with 0.045 lb ai fluazifop-P acre^−1 at 14 days after planting. Pioneer 84G62 died between 12-16 days after spraying.

[2] = system: Tx2783, an herbicide susceptible elite sorghum genotype; assay: Greenhouse herbicide selection, spray on susceptible elite check; type: in vivo, Sorghum bicolor (L.) Moench
From the text: Seeds of 83 wild sorghum populations from Bolivia were planted in a greenhouse for comparison with Tx2783, an herbicide susceptible elite sorghum genotype. Wild sorghum genotypes were planted in flats containing MetroMix 360 potting soil (Sun Gro) and greenhouse grown. Tx2783 was planted with the wild accessions in each flat for comparison. In one selection using clethodim, plants were sprayed with 0.09 lb ai clethodim acre^−1 at 18 days after planting. […] In one selection using fluoazifop-P, flats with Tx2783 and wild accessions were sprayed with a rate of 0.12 lb ai fluazifop-P acre^−1 at 18 days after planting and with 0.36 lb ai fluazifop-P acre^−1 at 32 days after planting. […] In a third experiment, plants were sprayed with a rate of 0.05 lb ai quizalofop acre^−1 at 18 days after planting and with 0.11 lb ai quizalofop acre^−1 at 32 days after planting.

[3] = system: Bol-71; assay: Mode of inheritance greenhouse spray test, wild parent; type: in vivo, sorghum; conditions: 0.045 lb ai fluazifop-P acre^-1 at 14 days after planting, n=3
Experimental: as §1

[4] = system: F1 generation of cross ATx623×Bol-71; assay: Mode of inheritance greenhouse spray test, F1 hybrid; type: in vivo, sorghum; conditions: 0.045 lb ai fluazifop-P acre^-1 at 14 days after planting, n=3
Experimental: as §1

SMILES | time of plant death after spraying [1] | plant outcome after spraying ([2]; 0.12 lb ai fluazifop-P acre^-1 at 18 days and 0.36 lb ai acre^-1 at 32 days after planting) | herbicide damage [3] | herbicide damage [4] | plant outcome after spraying ([2]; 0.05 lb ai quizalofop acre^-1 at 18 days and 0.11 lb ai acre^-1 at 32 days after planting)
C[C@@H](Oc1ccc(Oc2ccc(C(F)(F)F)cn2)cc1)C(=O)O [fluazifop-P] | 12-16 days after spraying | died | no herbicide damage | no herbicide damage | 
CC(Oc1ccc(Oc2cnc3cc(Cl)ccc3n2)cc1)C(=O)O (centres unmarked) [quizalofop] |  |  |  |  | died
